Experimental data published in ChEMBL document CHEMBL3046462, “Synthesis and anti-bacterial activities of some novel pyrazolobenzothiazine-based chalcones and their pyrimidine derivatives” (2012).

Key:
Format in all cases: functional
Escherichia coli [1] = experiment: Antibacterial activity against Escherichia coli X580 at 2 mg/ml after overnight incubation by hole plate method relative to cephalosporin C
Escherichia coli [2] = experiment: Antibacterial activity against Escherichia coli X580 at 2 mg/ml after overnight incubation by hole plate method; settings: read-out: DIZ
Staphylococcus aureus [3] = experiment: Antibacterial activity against Staphylococcus aureus NCTC 6571 at 2 mg/ml after overnight incubation by hole plate method relative to cephalosporin C
Staphylococcus aureus [4] = experiment: Antibacterial activity against Staphylococcus aureus NCTC 6571 at 2 mg/ml after overnight incubation by hole plate method; settings: read-out: DIZ

Compound: COc1ccc(-c2cc(-c3ccc(-n4nc5c(c4C)N(C)S(=O)(=O)c4ccccc4-5)cc3)nc(N)n2)cc1OC
- fold change (FC) (Escherichia coli [1]): 4.13
- zone of inhibition at 2000 µg/mL (Escherichia coli [2]): 14 mm

Compound: COc1ccc(-c2cc(-c3ccc(-n4nc5c(c4C)N(C)S(=O)(=O)c4ccccc4-5)cc3)nc(N)n2)c(OC)c1OC
- fold change (FC) (Escherichia coli [1]): 19.06
- zone of inhibition at 2000 µg/mL (Escherichia coli [2]): 24 mm

Compound: COc1cc(-c2cc(-c3ccc(-n4nc5c(c4C)N(C)S(=O)(=O)c4ccccc4-5)cc3)nc(N)n2)cc(OC)c1OC
- fold change (FC) (Escherichia coli [1]): 3.55
- zone of inhibition at 2000 µg/mL (Escherichia coli [2]): 13 mm

Compound: Cc1c2c(nn1-c1ccc(-c3cc(-c4ccc([N+](=O)[O-])cc4)nc(N)n3)cc1)-c1ccccc1S(=O)(=O)N2C
- fold change (FC) (Escherichia coli [1]): 4.13
- zone of inhibition at 2000 µg/mL (Escherichia coli [2]): 14 mm

Compound: Cc1c2c(nn1-c1ccc(-c3cc(-c4ccccc4)nc(N)n3)cc1)-c1ccccc1S(=O)(=O)N2C
- fold change (FC) (Escherichia coli [1]): 4.13
- zone of inhibition at 2000 µg/mL (Escherichia coli [2]): 14 mm

Compound: Cc1ccc(-c2cc(-c3ccc(-n4nc5c(c4C)N(C)S(=O)(=O)c4ccccc4-5)cc3)nc(N)n2)cc1
- fold change (FC) (Escherichia coli [1]): 4.13
- zone of inhibition at 2000 µg/mL (Escherichia coli [2]): 14 mm

Compound: Cc1cc(C)c(-c2cc(-c3ccc(-n4nc5c(c4C)N(C)S(=O)(=O)c4ccccc4-5)cc3)nc(N)n2)c(C)c1
- fold change (FC) (Escherichia coli [1]): 4.81
- zone of inhibition at 2000 µg/mL (Escherichia coli [2]): 15 mm

Compound: Cc1ccc(C(=O)/C=C/c2ccc(-n3nc4c(c3C)N(C)S(=O)(=O)c3ccccc3-4)cc2)cc1
- fold change (FC) (Escherichia coli [1]): 3.55
- zone of inhibition at 2000 µg/mL (Escherichia coli [2]): 13 mm

Compound: Cc1cc(C)c(C(=O)/C=C/c2ccc(-n3nc4c(c3C)N(C)S(=O)(=O)c3ccccc3-4)cc2)c(C)c1
- fold change (FC) (Escherichia coli [1]): 4.81
- zone of inhibition at 2000 µg/mL (Escherichia coli [2]): 15 mm

Compound: Cc1c2c(nn1-c1ccc(-c3cc(-c4ccc(F)cc4)nc(N)n3)cc1)-c1ccccc1S(=O)(=O)N2C
- fold change (FC) (Escherichia coli [1]): 4.81
- zone of inhibition at 2000 µg/mL (Escherichia coli [2]): 15 mm

Compound: Cc1c2c(nn1-c1ccc(-c3cc(-c4ccc(Cl)cc4)nc(N)n3)cc1)-c1ccccc1S(=O)(=O)N2C
- fold change (FC) (Escherichia coli [1]): 5.61
- zone of inhibition at 2000 µg/mL (Escherichia coli [2]): 16 mm

Compound: Cc1c2c(nn1-c1ccc(-c3cc(-c4cccc(Cl)c4)nc(N)n3)cc1)-c1ccccc1S(=O)(=O)N2C
- fold change (FC) (Escherichia coli [1]): 5.61
- zone of inhibition at 2000 µg/mL (Escherichia coli [2]): 16 mm

Compound: Cc1c2c(nn1-c1ccc(-c3cc(-c4ccc(Br)cc4)nc(N)n3)cc1)-c1ccccc1S(=O)(=O)N2C
- fold change (FC) (Staphylococcus aureus [3]): 508
- fold change (FC) (Escherichia coli [1]): 8.87
- zone of inhibition at 2000 µg/mL (Staphylococcus aureus [4]): 17 mm
- zone of inhibition at 2000 µg/mL (Escherichia coli [2]): 19 mm

Compound: Cc1c2c(nn1-c1ccc(-c3cc(-c4cccc(Br)c4)nc(N)n3)cc1)-c1ccccc1S(=O)(=O)N2C
- fold change (FC) (Escherichia coli [1]): 4.13
- zone of inhibition at 2000 µg/mL (Escherichia coli [2]): 14 mm

Compound: COc1ccccc1-c1cc(-c2ccc(-n3nc4c(c3C)N(C)S(=O)(=O)c3ccccc3-4)cc2)nc(N)n1
- fold change (FC) (Staphylococcus aureus [3]): 1390
- fold change (FC) (Escherichia coli [1]): 10.34
- zone of inhibition at 2000 µg/mL (Staphylococcus aureus [4]): 22 mm
- zone of inhibition at 2000 µg/mL (Escherichia coli [2]): 20 mm

Compound: Cc1c2c(nn1-c1ccc(C(=O)/C=C/c3ccc(F)cc3)cc1)-c1ccccc1S(=O)(=O)N2C
- fold change (FC) (Escherichia coli [1]): 4.13
- zone of inhibition at 2000 µg/mL (Escherichia coli [2]): 14 mm

Compound: Cc1c2c(nn1-c1ccc(C(=O)/C=C/c3ccc(Cl)cc3)cc1)-c1ccccc1S(=O)(=O)N2C
- fold change (FC) (Escherichia coli [1]): 3.55
- zone of inhibition at 2000 µg/mL (Escherichia coli [2]): 13 mm

Compound: Cc1c2c(nn1-c1ccc(C(=O)/C=C/c3cccc(Cl)c3)cc1)-c1ccccc1S(=O)(=O)N2C
- fold change (FC) (Escherichia coli [1]): 4.81
- zone of inhibition at 2000 µg/mL (Escherichia coli [2]): 15 mm

Compound: Cc1c2c(nn1-c1ccc(C(=O)/C=C/c3ccc(Cl)cc3Cl)cc1)-c1ccccc1S(=O)(=O)N2C
- fold change (FC) (Escherichia coli [1]): 5.61
- zone of inhibition at 2000 µg/mL (Escherichia coli [2]): 16 mm

Compound: Cc1c2c(nn1-c1ccc(C(=O)/C=C/c3ccc(Br)cc3)cc1)-c1ccccc1S(=O)(=O)N2C
- fold change (FC) (Escherichia coli [1]): 4.81
- zone of inhibition at 2000 µg/mL (Escherichia coli [2]): 15 mm

Compound: Cc1c2c(nn1-c1ccc(C(=O)/C=C/c3cccc(Br)c3)cc1)-c1ccccc1S(=O)(=O)N2C
- fold change (FC) (Escherichia coli [1]): 6.53
- zone of inhibition at 2000 µg/mL (Escherichia coli [2]): 17 mm

Compound: COc1ccccc1/C=C/C(=O)c1ccc(-n2nc3c(c2C)N(C)S(=O)(=O)c2ccccc2-3)cc1
- fold change (FC) (Escherichia coli [1]): 5.61
- zone of inhibition at 2000 µg/mL (Escherichia coli [2]): 16 mm

Compound: COc1ccc(/C=C/C(=O)c2ccc(-n3nc4c(c3C)N(C)S(=O)(=O)c3ccccc3-4)cc2)cc1OC
- fold change (FC) (Escherichia coli [1]): 4.81
- zone of inhibition at 2000 µg/mL (Escherichia coli [2]): 15 mm

Compound: COc1ccc(/C=C/C(=O)c2ccc(-n3nc4c(c3C)N(C)S(=O)(=O)c3ccccc3-4)cc2)c(OC)c1OC
- fold change (FC) (Escherichia coli [1]): 4.13
- zone of inhibition at 2000 µg/mL (Escherichia coli [2]): 14 mm

Compound: Cc1c2c(nn1-c1ccc(C(=O)/C=C/c3ccc([N+](=O)[O-])cc3)cc1)-c1ccccc1S(=O)(=O)N2C
- fold change (FC) (Escherichia coli [1]): 4.81
- zone of inhibition at 2000 µg/mL (Escherichia coli [2]): 15 mm

Compound: Cc1c2c(nn1-c1ccc(/C=C/C(=O)c3ccc(Cl)cc3)cc1)-c1ccccc1S(=O)(=O)N2C
- fold change (FC) (Escherichia coli [1]): 4.13
- zone of inhibition at 2000 µg/mL (Escherichia coli [2]): 14 mm

Compound: Cc1c2c(nn1-c1ccc(/C=C/C(=O)c3ccc(Br)cc3)cc1)-c1ccccc1S(=O)(=O)N2C
- fold change (FC) (Escherichia coli [1]): 5.61
- zone of inhibition at 2000 µg/mL (Escherichia coli [2]): 16 mm

Compound: COc1ccc(C(=O)/C=C/c2ccc(-n3nc4c(c3C)N(C)S(=O)(=O)c3ccccc3-4)cc2)cc1
- fold change (FC) (Escherichia coli [1]): 4.81
- zone of inhibition at 2000 µg/mL (Escherichia coli [2]): 15 mm
